Like-named read-outs stand apart in the source and are kept apart here.
Columns and labels:
Drosophila OR49b = target: T1, Drosophila OR49b (Drosophila melanogaster, UniProt Q9V6H2); experiment: cell-based; details: for activation at 1 µM / activation at 10 µM / activation at 100 µM: HEK293, read-out: OR49b response (VUAA1-normalized response); for Average response: mean of biological replicates
T1 construct: expressed in transfected cells
T1 sequence (Q9V6H2 1-375): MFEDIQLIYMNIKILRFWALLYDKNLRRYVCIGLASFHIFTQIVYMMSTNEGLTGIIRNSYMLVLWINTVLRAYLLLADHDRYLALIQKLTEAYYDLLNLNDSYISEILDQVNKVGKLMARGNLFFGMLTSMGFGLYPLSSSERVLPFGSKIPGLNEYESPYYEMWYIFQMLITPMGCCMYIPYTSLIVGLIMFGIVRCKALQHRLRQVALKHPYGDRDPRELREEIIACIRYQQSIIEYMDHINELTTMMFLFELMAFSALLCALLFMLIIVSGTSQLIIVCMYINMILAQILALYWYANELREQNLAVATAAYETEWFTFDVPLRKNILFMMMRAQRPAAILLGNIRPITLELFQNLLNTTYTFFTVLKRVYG
T1 sequence (Q9VNB5 1-486 partner): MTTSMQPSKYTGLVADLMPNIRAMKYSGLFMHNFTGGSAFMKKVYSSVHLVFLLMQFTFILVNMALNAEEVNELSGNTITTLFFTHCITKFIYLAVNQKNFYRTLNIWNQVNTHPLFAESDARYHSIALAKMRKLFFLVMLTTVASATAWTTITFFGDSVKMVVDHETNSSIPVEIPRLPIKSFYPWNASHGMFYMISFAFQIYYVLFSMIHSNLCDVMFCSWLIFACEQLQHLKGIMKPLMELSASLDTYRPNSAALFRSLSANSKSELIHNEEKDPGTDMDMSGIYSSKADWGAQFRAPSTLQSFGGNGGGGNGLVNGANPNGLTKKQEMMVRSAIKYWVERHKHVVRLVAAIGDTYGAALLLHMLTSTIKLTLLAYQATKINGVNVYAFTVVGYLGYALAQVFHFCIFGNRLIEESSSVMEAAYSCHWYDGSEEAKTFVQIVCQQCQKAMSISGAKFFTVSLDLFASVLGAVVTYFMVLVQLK
How it was run: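 HEK293 lines stably expressing each Drosophila OR with GCaMP6, doxycycline-induced (1 μg/mL) 48 or 72 h. Fluorescence recorded 5 s baseline then 30 s after VOC injection at pH 7.3; ΔF=(FMAX−F0)/F0, normalized to 50 µM VUAA1 response per line, triplicate wells averaged; concentration series 0.01–100 μM.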

Drosophila OR71a = target: T2, Drosophila OR71a (Drosophila melanogaster, UniProt Q9VUK5); experiment: Calcium ion fluorescence (GCaMP6) assay, OR71a stable HEK293 cell line; type: cell-based; details: for activation at 1 µM / activation at 10 µM / activation at 100 µM: HEK293, read-out: OR71a response (VUAA1-normalized response); for Average response: VUAA1-normalized response, mean of biological replicates; for OR71a Average response (VUAA1-normalized): 50 μM VUAA1 = 1
T2 construct: expressed in transfected cells
T2 sequence (Q9VUK5 1-378): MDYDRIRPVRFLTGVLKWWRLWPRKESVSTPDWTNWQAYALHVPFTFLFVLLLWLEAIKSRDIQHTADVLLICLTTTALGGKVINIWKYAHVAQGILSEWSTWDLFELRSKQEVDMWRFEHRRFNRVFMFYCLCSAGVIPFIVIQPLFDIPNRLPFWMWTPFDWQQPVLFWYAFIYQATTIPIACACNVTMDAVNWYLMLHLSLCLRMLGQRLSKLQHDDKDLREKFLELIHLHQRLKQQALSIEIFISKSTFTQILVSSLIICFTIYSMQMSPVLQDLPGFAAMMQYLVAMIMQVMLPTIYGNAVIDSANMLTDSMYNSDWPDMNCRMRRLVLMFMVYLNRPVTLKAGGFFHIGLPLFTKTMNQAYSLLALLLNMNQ
T2 sequence (Q9VNB5 1-486 partner): T1 sequence (Q9VNB5 1-486 partner)
Method: These VUAA1 normalized ∆F values were used to compare the different receptors and ligands.
The concentration-dependent effect of the reference ligands on their cognate cell lines was examined in more detail. Twelve different ligand concentrations were measured on each cell line in an overall 0.01 μM to 100 μM concentration range with 5 repetitions with three technical replicates each time.
Twelve thousand to 18,000 cells were plated into each well of a black wall, transparent bottom 384-well microplate (Greiner) 48 h or 72 h before the measurements and were simultaneously treated with 1 μg/mL doxycycline. […] The plate has 24 columns, thus we could record responses in up to eight different cell lines in each plate. On the day of the experiment, the growth medium was replaced with 20 µL assay buffer/well (140 mM NaCl, 5 mM KCl, 2 mM CaCl2, 1 mM MgCl2, 5 mM HEPES-Na, 20 mM glucose, pH 7.3, 340 mOsm). […] Baseline fluorescence (F0) was recorded for 5 s, after which 7 µL VOC buffer (140 mM NaCl, 5 mM KCl, 2 mM CaCl2, 1 mM MgCl2, 5 mM HEPES-Na, 31 mM glucose, 0.1% DMSO, pH 7.3, 340 mOsm) was injected into each well in one row and the fluorescence response was recorded for an additional 30 s, at a rate of one read/sec. VOC solutions (VOC buffer with 4× concentration of the final measured VOC concentration, 9 µL/well was injected) were measured on the same wells in a second round with the same protocol. Each individual concentration of a specific VOC sample was recorded in three wells for the same cell line on the same microplate. The raw data were exported in xls file format, F0 and FMAX values, and the fluorescence intensity changes (∆F) were calculated in Excel (Microsoft) (Supplementary file Data summary.xlsx) using the following equation: ΔF=FMAX-F0/F0 (see also Fig. 1C). On each plate, we recorded the response of each cell line to 50 µM VUAA1. The average of these ∆F values of each cell line were used to calculate the VUAA1-normalized values for the rest of the plate, by dividing VOC response ∆F values by the average VUAA1 response ∆F value of the corresponding OR cell line. Each VOC-OR combination was measured three times as technical replicates. […] The average of these replicates were used as one ∆F and VUAA1-normalized ∆F in the following analysis.
In the next rows we tested the reference VOCs (or other VOCs known to activate the corresponding cell lines), in order to test if all cell lines are responsive. The remaining rows were used to test VOCs with unknown effect.
The recorded FMAX, F0, ∆F, VUAA1-normalized ∆F values, as well as the OR name, the name of the tested sample, and the final concentration for each well were copied into supplementary file Data summary.xlsx, that was used to summarize all the plates recorded. Here, the averages of the measurements were calculated for each receptor-VOC-concentration combination.

[1] = OR49b cell line, odorant cc. 1 µM
[2] = OR49b cell line, odorant cc. 10 µM
[3] = OR49b cell line, odorant cc. 100 µM
[4] = concentration 1, normalized fluorescence change, values below 0.05 threshold given as 0
[5] = concentration 10, normalized fluorescence change, values below 0.05 threshold given as 0
[6] = concentration 100, normalized fluorescence change, values below 0.05 threshold given as 0
[7] = ligand concentration 1 (unit not given), threshold 0.05, below shown as 0
[8] = ligand concentration 10 (unit not given), threshold 0.05, below shown as 0
[9] = ligand concentration 100 (unit not given), threshold 0.05, below shown as 0
[10] = ligand concentration 1 (unit not given), 0.05 threshold, values below shown as 0
[11] = ligand concentration 10 (unit not given), 0.05 threshold, values below shown as 0
[12] = ligand concentration 100 (unit not given), 0.05 threshold, values below shown as 0

Row | SMILES | activation at 1 µM (Drosophila OR49b; VOC concentration 1 μM) | activation at 10 µM (Drosophila OR49b; VOC concentration 10 μM) | activation at 100 µM (Drosophila OR49b; VOC concentration 100 μM) | Average response (Drosophila OR49b; [1]) | Average response (Drosophila OR49b; [2]) | Average response (Drosophila OR49b; [3]) | activation at 1 µM (Drosophila OR71a) | activation at 10 µM (Drosophila OR71a) | activation at 100 µM (Drosophila OR71a) | Average response (Drosophila OR71a; OR71a cell line, cc. 1 µM) | Average response (Drosophila OR71a; OR71a cell line, cc. 10 µM) | Average response (Drosophila OR71a; OR71a cell line, cc. 100 µM) | DF norm AVERAGE OR49b (Drosophila OR49b; [7]) | DF norm AVERAGE OR49b (Drosophila OR49b; [8]) | DF norm AVERAGE OR49b (Drosophila OR49b; [9]) | DF norm AVERAGE OR71a (Drosophila OR71a; [7]) | DF norm AVERAGE OR71a (Drosophila OR71a; [8]) | DF norm AVERAGE OR71a (Drosophila OR71a; [9]) | also measured
1 | CCCCC(C)=O [2-hexanone] | 0% | 0% | 0% | 0.00 | 0.00 | 0.00 | 8% | 0% | 0% | 0.08 | 0.00 | 0.00 |  |  |  |  |  |  | DF norm AVERAGE OR49b (Drosophila OR49b): 0; DF norm AVERAGE OR71a (Drosophila OR71a; [4]): 0.08158; DF norm AVERAGE OR71a (Drosophila OR71a; [5]): 0; DF norm AVERAGE OR71a (Drosophila OR71a; [6]): 0
2 | CCOC(=O)CC [ethyl propionate] | 0% | 0% | 0% | 0.00 | 0.00 | 0.0428 | 0% | 0% | 0% | 0.0185 | 0.00 | 0.00 | 0 | 0 | 0 | 0 | 0 | 0 | 
3 | C=C(C)C1CCC2(C)OC2C1 (single isomer, unassigned; (+)) [(+)-limonene oxide] |  |  |  | 0.00 | 0.00 | 0.00 |  |  |  | 0.0247 | 0.0256 | 0.00 |  |  |  |  |  |  | DF norm AVERAGE OR49b (Drosophila OR49b): 0; OR49b response (VUAA1-normalized response) (Drosophila OR49b; VOC concentration 1 μM): 0.00; OR49b response (VUAA1-normalized response) (Drosophila OR49b; VOC concentration 10 μM): 0.00; OR49b response (VUAA1-normalized response) (Drosophila OR49b; VOC concentration 100 μM): 0.00; OR71a response (VUAA1-normalized response) (Drosophila OR71a; VOC concentration 1 μM): 0.00; OR71a response (VUAA1-normalized response) (Drosophila OR71a; VOC concentration 10 μM): 0.00; OR71a response (VUAA1-normalized response) (Drosophila OR71a; VOC concentration 100 μM): 0.00; DF norm AVERAGE OR71a (Drosophila OR71a; [4]): 0; DF norm AVERAGE OR71a (Drosophila OR71a; [5]): 0; DF norm AVERAGE OR71a (Drosophila OR71a; [6]): 0
4 | CCOC(=O)c1ccccc1 [ethyl benzoate] | 6% | 0% | 0% | 0.06 | 0.0464 | 0.0169 | 0% | 5.54% | 11% | 0.04 | 0.0554 | 0.11 | 0.05937 | 0 | 0 | 0 | 0.05543 | 0.1075 | OR71a Average response (VUAA1-normalized) (Drosophila OR71a; 1 μM VOC): 0.04; OR71a Average response (VUAA1-normalized) (Drosophila OR71a; 10 μM VOC): 0.06; OR71a Average response (VUAA1-normalized) (Drosophila OR71a; 100 μM VOC): 0.11
5 | CCCCCC(=O)OCC [ethyl hexanoate] | 0% | 0% | 0% | 0.00 | 0.00 | 0.00 | 0% | 0% | 0% | 0.0156 | 0.0153 | 0.00 | 0 | 0 | 0 | 0 | 0 | 0 | 
6 | CC/C=C\CCO [Z3-hexenol] |  |  |  | 0.0226 | 0.00 | 0.00 |  |  |  | 0.00 | 0.0174 | 0.00 |  |  |  |  |  |  | DF norm AVERAGE OR49b (Drosophila OR49b; [10]): 0; DF norm AVERAGE OR49b (Drosophila OR49b; [11]): 0; DF norm AVERAGE OR49b (Drosophila OR49b; [12]): 0; DF norm AVERAGE OR71a (Drosophila OR71a; [10]): 0; DF norm AVERAGE OR71a (Drosophila OR71a; [11]): 0; DF norm AVERAGE OR71a (Drosophila OR71a; [12]): 0
7 | CCCCCOC(C)=O [pentyl acetate] |  |  |  | 0.08 | 0.0108 | 0.06 |  |  |  | 0.00 | 0.0163 | 0.09 | 0.07954 | 0 | 0.06097 | 0 | 0 | 0.08698 | OR49b response (VUAA1-normalized) at 1 μM (Drosophila OR49b; OR49b cell line, VOC concentration 1 μM): 0.08; OR49b response (VUAA1-normalized) at 10 μM (Drosophila OR49b; OR49b cell line, VOC concentration 10 μM): 0.00; OR49b response (VUAA1-normalized) at 100 μM (Drosophila OR49b; OR49b cell line, VOC concentration 100 μM): 0.06; OR71a response (VUAA1-normalized) at 1 μM (Drosophila OR71a; OR71a cell line, VOC concentration 1 μM): 0.00; OR71a response (VUAA1-normalized) at 10 μM (Drosophila OR71a; OR71a cell line, VOC concentration 10 μM): 0.00; OR71a response (VUAA1-normalized) at 100 μM (Drosophila OR71a; OR71a cell line, VOC concentration 100 μM): 0.09
